We go through 18 compounds from patent US20220041588A1, “SUBSTITUTED IMIDAZO[1,2-A]PYRIDINE AND [1,2,4]TRIAZOLO[1,5-A]PYRIDINE COMPOUNDS AS RET KINASE INHIBITORS” (FOCHON PHARMACEUTICALS, LTD., priority 2018, published 2022).

As a reminder, the IC50 is the point on the concentration scale where inhibition reaches its midpoint. Read a low IC50 as greater potency.

In one assay the test system is TT (RET C634W) cells. Briefly: Cell proliferation assay (MTS), TT cells. Format: cell-based. The following applies: 72 h incubation, MTS readout. As for the experimental part: (§1) MTS testing kit was purchased from Promega. The RPMI-1640, F12, F12K, Fetal bovine serum and Penicillin-Streptomycin were purchased from BI. Glutamine and Dimethyl sulfoxide (DMSO) were purchased from Sigma. TT cells were cultured in F12K supplemented with 10% FBS and LC-2/ad cells were cultured in HamF12: RPMI1640 (1:1) supplemented with 10% FBS and 2 mM Glutamine.
(§2) To investigate whether a compound is able to inhibit the activity of RET fusion and/or mutation in cells, a mechanism-based assay using TT (RET C634W) and LC-2/ad (CCDCl6-RET) cell lines was developed. In this assay, the inhibition of RET fusion and/or mutation was reflected by the inhibition of cell proliferation of TT and LC-2/ad cells. Cells were plated into 96-well plates at the optimized cell density (TT: 5000 cells/well; LC-2/ad: 5000 cells/well). Plates were incubated at 37° C., with 5% CO2 for 24 h. Compounds were serially diluted and added to the plates with the final concentrations as 10000, 3333.3, 1111.1, […], 123.5, 41.2, 13.7, 4.6 and 1.5 nM. Plates were incubated at 37° C., with 5% CO2 for 72 h. An aliquot of 20 μL MTS/100 μL medium mixture solution were added to each well and the plates were incubated for exactly 2 h. The reaction was stopped by adding 25 μL 10% SDS to each well. The absorbance was measured by a microplate reader at 490 nm and 650 nm (reference wavelength). IC50 was calculated using GraphPad Prism 5.0.

Assay [1] deals with LC-2/ad (CCDCl6-RET) cells. Briefly: Cell proliferation assay (MTS), LC-2/ad cells. Format: cell-based. The conditions noted are these: LC-2/ad cells (CCDCl6-RET), 72 h incubation, MTS readout. As for the experimental part:
as §1, §2

`Cn1cc(-c2cc(-c3ccc(N4CCC(Oc5ccccn5)CC4)nc3)n3c(C#N)cnc3c2)cn1` [Example 18, 7-(1-methyl-1H-pyrazol-4-yl)-5-(6-(4-(pyridin-2-yloxy)piperidin-1-yl)pyr-idin-3-yl)imidazo[1,2-a]pyridine-3-carbonitrile]: the IC50 in the assay on TT (RET C634W) cells (Homo sapiens, TT, 72 h) was found to be 1 nM; in assay [1] (Homo sapiens, LC-2-ad, 72 h) it was 2 nM.

In the case of `COc1ccc(OC2CCN(c3ccc(-c4cc(-c5cnn(C)c5)cc5ncc(C#N)n45)cn3)CC2)nn1` [Example 19, 5-(6-(4-((6-methoxypyridazin-3-yl)oxy)piperidin-1-yl)pyridin-3-yl)-7-(1-methyl-1H-pyrazol-4-yl)imidazo[1,2-a]pyridine-3-carbonitrile], the half-inhibitory concentration (IC50) in the assay with TT (RET C634W) cells (Homo sapiens, TT, 72 h) is 1 nM; in assay [1] (Homo sapiens, LC-2-ad, 72 h) it was 6 nM.

`Cc1ccc(OC2CCN(c3ccc(-c4cc(-c5cnn(C)c5)cc5ncc(C#N)n45)cn3)CC2)nn1` [Example 20, 7-(1-methyl-1H-pyrazol-4-yl)-5-(6-(4-((6-methylpyridazin-3-yl)oxy)piper-idin-1-yl)pyridin-3-yl)imidazo[1,2-a]pyridine-3-carbonitrile]: the IC50 is 6 nM in the assay on TT (RET C634W) cells (Homo sapiens, TT, 72 h) and 17 nM in assay [1] (Homo sapiens, LC-2-ad, 72 h).

For the compound `Cn1cc(-c2cc(-c3ccc(N4CCC(O)(Cc5ccccn5)CC4)nc3)n3c(C#N)cnc3c2)cn1` [Example 21, 5-(6-(4-hydroxy-4-(pyridin-2-ylmeth-yl)piperidin-1-yl)pyridin-3-yl)-7-(1-methyl-1H-pyrazol-4-yl)imidazo[1,2-a]pyridine-3-carbonitrile], the IC50 in the assay with TT (RET C634W) cells (Homo sapiens, TT, 72 h) was 12 nM; in assay [1] (Homo sapiens, LC-2-ad, 72 h), 12 nM.

Consider `Cn1cc(-c2cc(-c3ccc(N4CCC(O)(Cc5ccccc5)CC4)nc3)n3c(C#N)cnc3c2)cn1` [Example 22, 5-(6-(4-benzyl-4-hydroxypiperidin-1-yl)pyridin-3-yl)-7-(1-methyl-1H-pyr-azol-4-yl)imidazo[1,2-a]pyridine-3-carbonitrile], for which the IC50 in the assay on TT (RET C634W) cells (Homo sapiens, TT, 72 h) amounted to 4 nM; in assay [1] (Homo sapiens, LC-2-ad, 72 h), 1 nM.

Regarding `COc1ccc(CN2CCN(c3ccc(-c4cc(-c5cnn(CCN6CCOCC6)c5)cc5ncc(C#N)n45)cn3)CC2)cn1` [Example 26, 5-(6-(4-((6-methoxypyridin-3-yl)meth-yl)piperazin-1-yl)pyridin-3-yl)-7-(1-(2-morpholinoethyl)-1H-pyrazol-4-yl)imidazo[1,2-a]pyridine-3-carbonitrile], the half-maximal inhibitory concentration (IC50) in the assay on TT (RET C634W) cells (Homo sapiens, TT, 72 h) turned out to be 74 nM; in assay [1] (Homo sapiens, LC-2-ad, 72 h), 89 nM.

`COc1ccc(CN2CCN(c3ccc(-c4cc(-c5cnn(CCOC(C)C)c5)cc5ncc(C#N)n45)cn3)CC2)cn1` [Example 27, 7-(1-(2-isopropoxyethyl)-1H-pyrazol-4-yl)-5-(6-(4-((6-methoxypyridin-3-yl)methyl)piperazin-1-yl)pyridin-3-yl) imidazo[1,2-a]pyridine-3-carbonitrile]: the IC50 with TT (RET C634W) cells (Homo sapiens, TT, 72 h) is 65 nM; in assay [1] (Homo sapiens, LC-2-ad, 72 h), 39 nM.

Turning to `Cn1cc(-c2cc(-c3ccc(N4CCN(Cc5ccccc5)CC4)nc3)n3c(C#N)cnc3c2)cn1` [Example 33, 5-(6-(4-benzylpiperazin-1-yl)pyridin-3-yl)-7-(1-methyl-1H-pyrazol-4-yl) imidazo[1,2-a]pyridine-3-carbonitrile], the IC50 in the assay on TT (RET C634W) cells (Homo sapiens, TT, 72 h) was determined as 34 nM; in assay [1] (Homo sapiens, LC-2-ad, 72 h), 17 nM.

Regarding `Cn1cc(-c2cc(-c3ccc(N4CCN(Cc5ccn(C)n5)CC4)nc3)n3c(C#N)cnc3c2)cn1` [Example 37, 5-(6-(4-((1-methyl-1H-pyrazol-3-yl)methyl)piperazin-1-yl)pyridin-3-yl)-7-(1-methyl-1H-pyrazol-4-yl)imidazo [1,2-a]pyridine-3-carbonitrile], the IC50 with TT (RET C634W) cells (Homo sapiens, TT, 72 h) is 45 nM; in assay [1] (Homo sapiens, LC-2-ad, 72 h), 41 nM.

Turning to `Cn1cc(-c2cc(-c3ccc(N4CCN(CCS(=O)(=O)c5ccccc5)CC4)nc3)n3c(C#N)cnc3c2)cn1` [Example 38, 7-(1-methyl-1H-pyrazol-4-yl)-5-(6-(4-(2-(phenylsulfonyl)ethyl)piperazin-1-yl)pyridin-3-yl)imidazo[1,2-a]pyr-idine-3-carbonitrile], the IC50 in the assay with TT (RET C634W) cells (Homo sapiens, TT, 72 h) was found to be 38 nM; in assay [1] (Homo sapiens, LC-2-ad, 72 h) it was 34 nM.

On to `Cn1cc(-c2cc(-c3ccc(N4CCN(C(=O)Cc5ccccn5)CC4)cc3)n3c(C#N)cnc3c2)cn1` [Example 45, 7-(1-methyl-1H-pyrazol-4-yl)-5-(4-(4-(2-(pyridin-2-yl)acetyl)piperazin-1-yl)phenyl)imidazo[1,2-a]pyridine-3-carbonitrile], for which the IC50 in the assay on TT (RET C634W) cells (Homo sapiens, TT, 72 h) was found to be 66 nM; in assay [1] (Homo sapiens, LC-2-ad, 72 h), 50 nM.

With `Cn1cc(-c2cc(-c3ccc(N4CCN(C(=O)Cc5ccccn5)CC4)nc3)n3c(C#N)cnc3c2)cn1` [Example 46, 7-(1-methyl-1H-pyrazol-4-yl)-5-(6-(4-(2-(pyridin-2-yl)acetyl)piperazin-1-yl)pyridin-3-yl)imidazo[1,2-a]pyri-dine-3-carbonitrile], the IC50 in the assay with TT (RET C634W) cells (Homo sapiens, TT, 72 h) was 37 nM; in assay [1] (Homo sapiens, LC-2-ad, 72 h) it was 36 nM.

Consider `CC(C)CC(=O)N1CCN(c2ccc(-c3cc(-c4cnn(C)c4)cc4ncc(C#N)n34)cn2)CC1` [Example 48, 7-(1-methyl-1H-pyrazol-4-yl)-5-(6-(4-(3-methylbutanoyl)piperazin-1-yl)pyridin-3-yl)imidazo[1,2-a]pyridine-3-carbonitrile], for which the concentration for half-maximal inhibition (IC50) in the assay on TT (RET C634W) cells (Homo sapiens, TT, 72 h) stood at 77 nM; in assay [1] (Homo sapiens, LC-2-ad, 72 h) it was 50 nM.

Consider `COC(CNC(=O)N1CCN(c2ccc(-c3cc(-c4cnn(C)c4)cc4ncc(C#N)n34)cn2)CC1)C(C)C` (stereo not drawn) [Example 50, 4-(5-(3-cyano-7-(1-methyl-1H-pyrazol-4-yl)imidazo[1,2-a]pyridin-5-yl)pyridin-2-yl)-N-(2-methoxy-3-methyl-butyl)piperazine-1-carboxamide], for which the IC50 in the assay on TT (RET C634W) cells (Homo sapiens, TT, 72 h) was 14 nM; in assay [1] (Homo sapiens, LC-2-ad, 72 h), 30 nM.

For `CC(C)OCCN1CCN(c2ccc(-c3cc(-c4cnn(C)c4)cc4ncc(C#N)n34)cn2)CC1` [Example 51, 5-(6-(4-(2-isopropoxyethyl)piperazin-1-yl)pyridin-3-yl)-7-(1-methyl-1H-pyrazol-4-yl)imidazo[1,2-a]pyridine-3-carbonitrile], the IC50 in the assay on TT (RET C634W) cells (Homo sapiens, TT, 72 h) worked out at 44 nM; in assay [1] (Homo sapiens, LC-2-ad, 72 h) it was 40 nM.

With `Cn1cc(-c2cc(-c3ccc(N4CCN(Cc5ccccn5)CC4)nc3)n3c(C#N)cnc3c2)cn1` [Example 52, 7-(1-methyl-1H-pyrazol-4-yl)-5-(6-(4-(pyridin-2-ylmethyl)piperazin-1-yl)pyridin-3-yl)imidazo[1,2-a]pyridine-3-carbonitrile], the IC50 with TT (RET C634W) cells (Homo sapiens, TT, 72 h) worked out at 24 nM; in assay [1] (Homo sapiens, LC-2-ad, 72 h), 42 nM.

As for `COc1ccc(CN2C3CC2CN(c2ccc(-c4cc(OCC5(O)CC5)cc5ncc(C#N)n45)cn2)C3)cn1` [Example 57A, 7-((1-Hydroxycyclopropyl)methoxy)-5-(6-(6-((6-methoxypyridin-3-yl)methyl)-3,6-diazabicyclo[3.1.1]heptan-3-yl)pyridin-3-yl)imidazo[1,2-a]pyridine-3-carbonitrile], the half-maximal inhibitory concentration (IC50) with TT (RET C634W) cells was found to be 33 nM; in assay [1] (Homo sapiens, LC-2-ad, 72 h), 81 nM.

In the case of `COc1ccc(CN2C3CC2CN(c2ccc(-c4cc(OCC5(O)CC5)cc5ncc(C#N)n45)cn2)C3)cn1` [Example 57B, 7-((1-Hydroxycyclopropyl)methoxy)-5-(6-(6-((6-methoxypyridin-3-yl)methyl)-3,6-diazabicyclo[3.1.1]heptan-3-yl)pyridin-3-yl)imidazo[1,2-a]pyridine-3-carbonitrile], the 50% inhibitory concentration (IC50) in the assay on TT (RET C634W) cells stood at 127 nM; in assay [1], 115 nM.
